Measured values as given in patent publication EP4332093A1, “SALT CONTAINING PIPERAZINE POLYCYCLIC DERIVATIVE, CRYSTAL FORM THEREOF, PREPARATION METHOD THEREFOR, AND USE THEREOF” (Shanghai Hansoh Biomedical Co., Ltd., priority 2021, dated 2022).
Values after ≈ are worked out from the molar mass of the structure shown. Where two headings read alike, the source gives them in different places.

Legend:
[1] = biological target: T1, D3 receptor (Homo sapiens, UniProt P35462); test: cAMP content in cells stably expressing D3 receptors (CHO-D3, forskolin, HTRF); format: cell-based
T1 construct: expressed in transfected cells
T1 sequence (P35462 whole entry): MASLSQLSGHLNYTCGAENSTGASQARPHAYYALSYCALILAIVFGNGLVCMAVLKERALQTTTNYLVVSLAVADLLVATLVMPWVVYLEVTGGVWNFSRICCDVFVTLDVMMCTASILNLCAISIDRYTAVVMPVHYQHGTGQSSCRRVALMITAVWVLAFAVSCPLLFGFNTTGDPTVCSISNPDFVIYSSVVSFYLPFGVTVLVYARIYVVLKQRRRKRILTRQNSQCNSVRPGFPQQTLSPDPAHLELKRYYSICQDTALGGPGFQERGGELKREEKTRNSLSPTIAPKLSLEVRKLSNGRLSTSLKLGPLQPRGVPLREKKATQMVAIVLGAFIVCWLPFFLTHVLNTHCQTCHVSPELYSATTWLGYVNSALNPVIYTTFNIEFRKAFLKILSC
Procedure: Determination of the effect of the compounds of the present invention on cAMP content in cells stably expressing D3 receptors
To determine the activation effect of the compounds on D3 receptor.
• 1. Preparation of the buffer: 1* HBSS + 20mM HEPES + 0.1% BSA + 500 µM IBMX. Complete medium: Ham's F12K + 10% fetal bovine serum +1* penicillin-streptomycin + 400 µg/mL G418. • 2. CHO-D3 cells were cultured in the complete medium at 37°C, 5% CO2. After TrypLE digestion, the cells were resuspended in the experimental buffer, and seeded into a 384-well cell culture plate at a seeding density of 8000 cells per well. • 3. The experimental buffer (1*HBSS, 0.1% BSA, 20 mM HEPES and 500 µM IBMX) was prepared. The compound was diluted with the buffer. 2.5 µL of the compound solution was added to each well, and the plate was incubated at 37°C for 10 minutes. The forskolin was diluted to 8 µM (8*) with the experimental buffer. 2.5 µL of the diluted 8* forskolin was added, and the plate was incubated at 37°C for 30 minutes. cAMP-d2 and Anti-cAMP-Eu^3+ were thawed, and diluted by 20-fold with the lysis buffer. 10 µL of cAMP-d2 was added to the experimental well, followed by the addition of 10 µL of Anti-cAMP-Eu^3+. The reaction plate was centrifuged at 200 g for 30 s at room temperature, and left to stand at 25°C for 1 h. Data was collected using Envision.

[2] = biological target: 5-HT2A receptor (Homo sapiens, UniProt P28223); test: Calcium ion mobility in cells stably expressing 5-HT2A receptors (Flp-In-CHO-5HT2A, FLIPR); format: cell-based; parameters: expressed in transfected cells; details: Flp-In-CHO-5HT2A stable pool, 5HT stimulation
Sequence of 5-HT2A receptor (P28223 whole entry): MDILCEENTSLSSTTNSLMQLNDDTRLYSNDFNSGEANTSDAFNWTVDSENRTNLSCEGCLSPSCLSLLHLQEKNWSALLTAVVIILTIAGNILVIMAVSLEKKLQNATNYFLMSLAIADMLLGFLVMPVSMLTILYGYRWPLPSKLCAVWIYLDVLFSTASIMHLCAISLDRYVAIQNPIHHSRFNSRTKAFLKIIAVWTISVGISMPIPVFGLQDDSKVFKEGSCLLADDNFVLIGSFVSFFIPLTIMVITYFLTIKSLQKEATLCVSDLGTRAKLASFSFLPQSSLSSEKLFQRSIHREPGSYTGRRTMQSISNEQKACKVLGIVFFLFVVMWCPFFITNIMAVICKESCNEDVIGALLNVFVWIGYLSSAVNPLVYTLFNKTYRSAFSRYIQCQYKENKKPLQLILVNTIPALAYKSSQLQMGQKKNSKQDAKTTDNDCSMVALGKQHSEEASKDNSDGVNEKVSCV
Procedure: Determination of the effect of the compounds of the present invention on calcium ion mobility in cells stably expressing 5-HT2A receptors
To determine the inhibitory effect of the compounds on 5-HT2A receptor.
• 1) Preparation of the buffer: 1 x HBSS, 20 mM HEPES, 2.5 mM probenecid (probenecid was 400 mM stock in 1 M NaOH), 0.1% BSA. Probenecid and BSA were added fresh on the day of the experiment. Experimental buffers include dye buffer and compound dilution buffer. • 2) Cell culture medium: Ham's F-12K + 10% fetal bovine serum + 600 µg/ml hygromycin B + 1* penicillin-streptomycin. Seeding medium: Ham's F-12K + 10% dialysis serum; Assay buffer: 1 x HBSS + 20 mM HEPES; Cell line: Flp-In-CHO-5HT2A stable pool. • 3) The cells were cultured in the complete medium at 37°C, 5% CO2 to 70%-90% confluency. The cells were digested with TrypLE, seeded to the 384-well assay plate at a density of 1 × 10^4 cells/well, and incubated for 16 to 24 hours (at least overnight). • 4) 20X Component A was thawed to room temperature, diluted to 2X working concentration (containing 5mM Probenecid) with the assay buffer, and placed at room temperature for later use. • 5) The cell culture plate was taken out and left to stand at room temperature for 10 min. […] 10 µl of diluted 5HT was add to each experimental well using FLIPR Tetra, and the values were read.
The calcium signal values were determined by FLIPR. The calculated output for each sampling time point in the experiment was the ratio of the 340/510 nm wavelength signals to 380/510 nm wavelength signals. The maximum minus minimum calculation was derived from the ratio signal curve. The percent inhibition rate and ten-point concentration data were fitted to the parametric nonlinear logistic equation by using GraphPad prism to calculate the IC50 values of the compound.

[3] = Pharmacokinetic assay in Balb/c mice (plasma and brain tissue); format: in vivo; details: male, mouse, po, p.o. 5 mg/kg; for AUC(0-t): read-out: Area under curve AUC0-t; for Tmax: read-out: Peak time tmax; for Cmax: read-out: Plasma concentration Cmax
Procedure: Balb/c mice were used as test animals. The pharmacokinetic behavior in mouse body (plasma and brain tissue) of the compounds of Examples of the present invention was studied at an oral administration dose of 5 mg/kg.
Compounds of the Examples of the present invention, prepared by the applicant.
Male Balb/c mice (12 mice per group), purchased from Shanghai Jiesijie Laboratory Animal Co., LTD, with Certificate No.: SCXK (Shanghai) 2013-0006 N0.311620400001794.
The test compound was dissolved in 0.5% CMC-Na (1% Tween80) by sonication to formulate a clear solution or homogeneous suspension.
After an overnight fast, male Balb/c mice (12 mice per group) were administered p.o. with the test compound at an administration dose of 5 mg/kg and an administration volume of 10 mL/kg.
0.2 mL of blood was taken from the heart of the mouse before administration and at 1, 2, 4, 8 and 24 hours after administration, and the mice were sacrificed with CO2. The samples were stored in EDTA-K2 tubes, and centrifuged for 6 minutes at 4°C, 6000 rpm to separate the plasma. The plasma samples were stored at -80°C. Whole brain tissue was taken out, weighed, placed in a 2 mL centrifuge tube, and stored at -80°C.
• 1) 160 µL of acetonitrile was added to 40 µL of the plasma sample for precipitation, and then the mixture was centrifuged for 5 to 20 minutes at 3500 × g. • 2) 90 µL of acetonitrile containing internal standard (100 ng/mL) was added to 30 µL of the plasma and brain homogenate sample for precipitation, and then the mixture was centrifuged for 8 minutes at 13000 rpm. • 3) 70 µL of water was added to 70 µL of the treated supernatant and mixed by vortex for 10 minutes. 20 µL of the supernatant was taken to analyze the concentration of the test compound by LC/MS/MS. LC/MS/MS analytical instrument: AB Sciex API 4000 Qtrap.
• Liquid chromatography condition: Shimadzu LC-20AD pump • Chromatographic column: Agilent ZORBAX XDB-C18 (50×2.1 mm, 3.5 µm); Mobile phase: Eluent A was 0.1% formic acid in water, and Eluent B was acetonitrile • Flow rate: 0.4 mL/min • Elution time: 0-4.0 minutes, the eluent is as follows:
The main parameters of pharmacokinetics were calculated by WinNonlin 6.1. Table 17: Experimental results of pharmacokinetic assay in mice

[4] = Solubility of hydrochloride and free base in different media (37°C, 24 hours, HPLC); format: physicochemical; details: thermodynamic from solid
Procedure: The glass bottle was shaken overnight on an electrothermal constant temperature shaking tank, and the temperature was set to 37°C. After 24 hours, the sample solution was filtered with a 0.45 µm mixed water fiber filter membrane, and the subsequent filtrate was taken to test its content by HPLC. HPLC detection methods are described in "Stability Study Conditions". Table 24 Solubility of hydrochloride and free base in different pH buffers

EC50 [1] [nM]	IC50 [2] [nM]	SMILES	also measured
3.9	6.4	Cc1nc(C(=O)NC2CC(CCN3CCN(c4cccc(Cl)c4Cl)CC3)C2)co1 (stereo not drawn) [Example 18, N-(3-(2-(4-(2,3-Dichlorophenyl)piperazin-1-yl)ethyl)cyclobutyl)-2-methyloxazole-4-carboxamide]	–
2.2	16.7	COCC(=O)NC1CC(CCN2CCN(c3cccc(Cl)c3Cl)CC2)C1 (stereo not drawn) [Example 2, N-(3-(2-(4-(2,3-Dichlorophenyl)piperazin-1-yl)ethyl)cyclobutyl)-2-methoxyacetamide]	–
3.4	10.9	Cc1cnoc1C(=O)NC1CC(CCN2CCN(c3cccc(Cl)c3Cl)CC2)C1 (stereo not drawn) [Example 13, N-(3-(2-(4-(2,3-Dichlorophenyl)piperazin-1-yl)ethyl)cyclobutyl)-4-methylisoxazole-5-carboxamide]	–
3.3	33.5	N#CC1(C(=O)NC2CC(CCN3CCN(c4cccc(Cl)c4Cl)CC3)C2)CC1 (stereo not drawn) [Example 21, 1-Cyano-N-(3-(2-(4-(2,3-dichlorophenyl)piperazin-1-yl)ethyl)cyclobutyl)cyclopropane-1-carboxamide]	–
1.2	8.9	Cc1cc(CC(=O)NC2CC(CCN3CCN(c4cccc(Cl)c4Cl)CC3)C2)on1 (stereo not drawn) [Example 10, N-(3-(2-(4-(2,3-Dichlorophenyl)piperazin-1-yl)ethyl)cyclobutyl)-2-(3-methylisoxazol-5-yl)acetamide]	–
2.4	22.1	COC1CN(C(=O)NC2CC(CCN3CCN(c4cccc(Cl)c4Cl)CC3)C2)C1 (stereo not drawn) [Example 5, N-(3-(2-(4-(2,3-Dichlorophenyl)piperazin-1-yl)ethyl)cyclobutyl)-3-methoxyazetidine-1-carboxamide]	–
2.9	13.1	O=C(NC1CC(CCN2CCN(c3cccc(Cl)c3Cl)CC2)C1)C1(O)CC1 (stereo not drawn) [Example 6, N-(3-(2-(4-(2,3-Dichlorophenyl)piperazin-1-yl)ethyl)cyclobutyl)-1-hydroxycyclopro pane-1-carboxamide]	AUC(0-t) ([3]; Brain): 1970 ng·h/mL; Tmax ([3]; Brain): 1 h; Cmax ([3]; Brain): 464 ng/mL; AUC(0-t) ([3]; Plasma): 2330 ng·h/mL; AUC(0-inf) ([3]; Plasma, read-out: Area under curve AUC0-∞): 2460 ng·h/mL; MRT ([3]; Plasma, read-out: Average residence time MRT): 2.8 h; half-life ([3]; Plasma, read-out: Half life t1/2 (converted)): 1.9 h; Tmax ([3]; Plasma): 0.5 h; Cmax ([3]; Plasma): 865 ng/mL
0.7	5.78	Cc1ncc(C(=O)NC2CC(CCN3CCN(c4cccc(Cl)c4Cl)CC3)C2)o1 (stereo not drawn) [Example 16, N-(3-(2-(4-(2,3-Dichlorophenyl)piperazin-1-yl)ethyl)cyclobutyl)-2-methyloxazole-5-carboxamide]	–
3.1	8.92	O=C(NC1CC(CCN2CCN(c3cccc(Cl)c3Cl)CC2)C1)c1ccon1 (stereo not drawn) [Example 17, N-(3-(2-(4-(2,3-Dichlorophenyl)piperazin-1-yl)ethyl)cyclobutyl)isoxazole-3-carboxamide]	–
1.2	13.4	Cc1cc(C(=O)NC2CC(CCN3CCN(c4cccc(Cl)c4Cl)CC3)C2)on1 (stereo not drawn) [Example 14, N-(3-(2-(4-(2,3-Dichlorophenyl)piperazin-1-yl)ethyl)cyclobutyl)-3-methylisoxazole-5-carboxamide]	–
3.5	8.08	Cc1ccc(C(=O)NC2CC(CCN3CCN(c4cccc(Cl)c4Cl)CC3)C2)o1 (stereo not drawn) [Example 1, N-(3-(2-(4-(2,3-Dichlorophenyl)piperazin-1-yl)ethyl)cyclobutyl)-5-methylfuran-2-c arboxamide]	–
1.7	8.06	O=C(NC1CC(CCN2CCN(c3cccc(Cl)c3Cl)CC2)C1)c1ccno1 (stereo not drawn) [Example 15, N-(3-(2-(4-(2,3-Dichlorophenyl)piperazin-1-yl)ethyl)cyclobutyl)isoxazole-5-carboxamide]	–
1.2	48	O=C(NC1CC(CCN2CCN(c3cccc(Cl)c3Cl)CC2)C1)c1cccnc1 (stereo not drawn) [Example 3, N-(3-(2-(4-(2,3-Dichlorophenyl)piperazin-1-yl)ethyl)cyclobutyl)nicotinamide]	–
1	7.37	O=C(NC1CC(CCN2CCN(c3cccc(Cl)c3Cl)CC2)C1)c1cccc2ncccc12 (stereo not drawn) [Example 19, N-(3-(2-(4-(2,3-Dichlorophenyl)piperazin-1-yl)ethyl)cyclobutyl)quinoline-5-carbox amide]	–
–	–	O=C(N[C@H]1C[C@H](CCN2CCN(c3cccc(Cl)c3Cl)CC2)C1)c1ncco1 [crystal form B of free base]	solubility at 24 h ([4]; aqueous buffer, Buffer pH 3): > 1000 µg/mL; solubility at 24 h ([4]; aqueous buffer, Buffer pH 4): > 1000 µg/mL; solubility at 24 h ([4]; aqueous buffer, Buffer pH 5): > 1000 µg/mL; solubility at 24 h ([4]; aqueous buffer, Buffer pH 6): 388 µg/mL (≈ 917 µM); solubility at 24 h ([4]; aqueous buffer, Buffer pH 7): 44 µg/mL (≈ 104 µM); solubility at 24 h ([4]; aqueous buffer, Buffer pH 8): 2 µg/mL (≈ 4.72 µM); solubility at 24 h ([4]; fassgf or other biorelevant, FaSSCoF): > 1000 µg/mL; solubility at 24 h ([4]; fassgf or other biorelevant, FaSSGF): 154 µg/mL (≈ 364 µM); solubility at 24 h ([4]; fassgf or other biorelevant, FeSSCoF): > 1000 µg/mL; solubility at 24 h ([4]; simulated gastric fluid, Buffer pH 1): > 1000 µg/mL; solubility at 24 h ([4]; simulated gastric fluid, Buffer pH 2): > 1000 µg/mL; solubility at 24 h ([4]; FaSSIF): > 1000 µg/mL; solubility at 24 h ([4]; FeSSIF): > 1000 µg/mL; solubility at 24 h ([4]; water, H2O): 125 µg/mL (≈ 295 µM)
